Drawing on ChEMBL document CHEMBL5257082, “Bacterial GTPases as druggable targets to tackle antimicrobial resistance” (Bioorg Med Chem Lett, 2023), this text covers MIC, CL and IC50 for nine compounds.

Values after ≈ are worked out from the molar mass of the structure shown.

Series [1] has as its system Staphylococcus aureus. In words: Antibacterial activity against Staphylococcus aureus. Format: functional.
The subject of another series is Escherichia coli. Put plainly: Antibacterial activity against Escherichia coli. The format is functional.
In series [2] the test system is Staphylococcus aureus. In words: Antibacterial activity against vancomycin-resistant Staphylococcus aureus. The format is functional.
Series [3] concerns Staphylococcus aureus. In words: Antibacterial activity against methicillin-resistant Staphylococcus aureus. The format is functional.
Series [4] in a line: Intrinsic clearance in BALB/c mouse at 24 mg/kg, iv. The format is ADME, organism-based. The settings on record: in vivo.
Series [5] relates to Staphylococcus aureus. In words: Antibacterial activity against linezolid-nonsusceptible Staphylococcus aureus. Format: functional.
The target in series [6] is T1, Cell division protein FtsZ (Staphylococcus aureus, UniProt P0A031).
T1 sequence (P0A031 whole entry): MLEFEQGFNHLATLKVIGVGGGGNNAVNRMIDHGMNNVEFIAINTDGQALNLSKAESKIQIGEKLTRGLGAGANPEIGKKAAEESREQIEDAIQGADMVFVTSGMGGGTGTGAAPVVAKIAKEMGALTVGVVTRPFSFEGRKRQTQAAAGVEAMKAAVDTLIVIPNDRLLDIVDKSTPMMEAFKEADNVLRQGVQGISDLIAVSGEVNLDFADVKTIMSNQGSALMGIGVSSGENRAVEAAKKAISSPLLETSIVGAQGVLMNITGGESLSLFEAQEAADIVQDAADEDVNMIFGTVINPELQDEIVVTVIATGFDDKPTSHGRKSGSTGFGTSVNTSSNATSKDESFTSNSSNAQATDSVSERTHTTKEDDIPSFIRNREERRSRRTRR
In words: Inhibition of Staphylococcus aureus FTsZ GTPase activity.

A further series concerns Streptococcus pyogenes. Put plainly: Antibacterial activity against Streptococcus pyogenes. Format: functional.
The subject of a further series is Enterococcus faecalis. Put plainly: Antibacterial activity against Enterococcus faecalis. Format: functional.
The test system of a further series is Streptococcus pneumoniae. In words: Antibacterial activity against Streptococcus pneumoniae. The format is functional.
The next series has as its system Bacillus subtilis. In words: Antibacterial activity against Bacillus subtilis. Format: functional.
In the next series the test system is Neisseria gonorrhoeae. In words: Antibacterial activity against Neisseria gonorrhoeae. Format: functional.
In a further series the test system is Haemophilus influenzae. In words: Antibacterial activity against Haemophilus influenzae. The format is functional.
Another series relates to Enterococcus faecium. Put plainly: Antibacterial activity against Enterococcus faecium. The format is functional.
The test system of another series is Acinetobacter baumannii. In words: Antibacterial activity against Acinetobacter baumannii. The format is functional.
For the next series, the system named is Klebsiella pneumoniae. In words: Antibacterial activity against Klebsiella pneumoniae. The format is functional.
A further series concerns Pseudomonas aeruginosa. Put plainly: Antibacterial activity against Pseudomonas aeruginosa. The format is functional.
The test system of the next series is Neisseria meningitidis. Put plainly: Antibacterial activity against Neisseria meningitidis. The format is functional.
A further series concerns Micrococcus luteus. In words: Antibacterial activity against Micrococcus luteus. Format: functional.

As for `Cc1cc(Cl)ccc1OC(C)C(=O)Nc1ccc(C(=O)Nc2ccccc2C(=O)O)cc1` (centres undefined), the MIC is greater than 25 µg/mL with Staphylococcus aureus [1] and greater than 200 µg/mL against Escherichia coli.

`CN1CCC(C(=O)NC(=O)c2c(F)ccc(OCc3nc4cc(C(F)(F)F)cnc4s3)c2F)CC1`: the MIC in the series with Staphylococcus aureus [2], in the series on Staphylococcus aureus [3] and in the series on Staphylococcus aureus [5] was 2 µg/mL (≈ 3.89 µM) throughout. In addition, in [4], the CL is 9.4 mL/min/kg.

A word on the IC50: it is the point on the concentration scale where inhibition reaches its midpoint. In turn, `NC(=O)c1c(F)ccc(OCc2nc3cc(Cl)cnc3s2)c1F` yielded an IC50 in series [6] of 150 nM. Also, the MIC was greater than 64 µg/mL against Streptococcus pyogenes; greater than 64 µg/mL with Enterococcus faecalis; greater than 64 µg/mL against Streptococcus pneumoniae; 1 µg/mL (≈ 2.81 µM) against Staphylococcus aureus [3]; 1 µg/mL (≈ 2.81 µM) with Bacillus subtilis; greater than 64 µg/mL with Escherichia coli. This compound also returned a CL in series [4] of 55.11 mL/min/kg.

Regarding `COc1ccc(/C=C(\C#N)C(=O)Nc2cccc(C(=O)O)c2)cc1OC(=O)c1cccc2ccccc12`, the figures for the MIC with Staphylococcus aureus [1] and against Escherichia coli were greater than 50 µg/mL and greater than 200 µg/mL, respectively.

Regarding `C/C=C\C=C\[C@@H]1C[C@](O)([C@H](CC)C(=O)NC/C=C/C=C(\C)[C@H](OC)[C@H](C)C2O[C@H](/C=C/C=C/C=C(\C)C(=O)c3c(O)cc[nH]c3=O)[C@H](O)[C@@H]2O)[C@H](O)[C@H](O)C1(C)C` (some centres undefined), the MIC is 0.06 µg/mL (≈ 0.0755 µM) in the series with Neisseria gonorrhoeae; 4 µg/mL (≈ 5.03 µM) in the series on Haemophilus influenzae; 2 µg/mL (≈ 2.52 µM) in the series with Enterococcus faecium; greater than 32 µg/mL against Enterococcus faecalis; greater than 32 µg/mL with Staphylococcus aureus [1]; greater than 128 µg/mL in the series on Escherichia coli.

Regarding `O=C(O)c1[nH]c2ccc(Cl)cc2c1CC(=O)N1CCN(c2ccc(C(F)(F)F)cc2)CC1`, the MIC was greater than 50 µg/mL in the series with Staphylococcus aureus [1] and greater than 200 µg/mL against Escherichia coli.

`CO[C@@H]1[C@H](O)[C@@H](OC)[C@H](O[C@@H](C)[C@@H](O)/C=C/C=C/C=C/C(=O)[C@@H](C)[C@@H](O)[C@H](C)C2C/C=C/C=C/C=C/[C@H](O)C(=O)/C(C)=C/C=C/C(C)=C/[C@@H](O)/C(C)=C/CC(=O)O2)O[C@@H]1C` (some centres undefined): the MIC was 32 µg/mL (≈ 38.1 µM) against Acinetobacter baumannii; 32 µg/mL (≈ 38.1 µM) in the series on Enterococcus faecalis; greater than 128 µg/mL in the series with Klebsiella pneumoniae; 2 µg/mL (≈ 2.38 µM) against Staphylococcus aureus [1]; 32 µg/mL (≈ 38.1 µM) against Pseudomonas aeruginosa; 32 µg/mL (≈ 38.1 µM) against Escherichia coli.

Turning to `CC/C=C/[C@@H](OC(N)=O)[C@@H](Cl)[C@H](O)CC(=O)[C@@H](O)[C@H](O)C(C)/C(Cl)=C/C=C/C=C(C)/C=C/C=C/C(=O)O[C@@H]1CC(C(=O)O)CC[C@@H]1O` (some centres undefined), the values for the MIC with Acinetobacter baumannii, against Staphylococcus aureus [1] and in the series with Pseudomonas aeruginosa were greater than 32 µg/mL, 2 µg/mL (≈ 2.85 µM) and greater than 32 µg/mL, respectively.

Take `CC(=O)O[C@H]1C[C@@]2(C)[C@@H](C[C@@H](O)[C@H]3[C@@]4(C)CC[C@@H](O)[C@@H](C)[C@@H]4CC[C@@]32C)/C1=C(\CCC=C(C)C)C(=O)O` [FUSIDIC ACID]: the MIC in the series on Streptococcus pyogenes was 16 µg/mL (≈ 31 µM); with Neisseria meningitidis it was 0.25 µg/mL (≈ 0.484 µM); with Enterococcus faecalis, 2 µg/mL (≈ 3.87 µM); against Staphylococcus aureus [3], 0.25 µg/mL (≈ 0.484 µM); against Escherichia coli it was greater than 32 µg/mL; in the series on Micrococcus luteus it was 0.5 µg/mL (≈ 0.968 µM).
